Measured values as given in ChEMBL document CHEMBL3885861, “Open TG-GATES”.

Species: Rattus norvegicus
Experiment: Open TG-GATES - Regimen: Single
Type: toxicity, organism-based, Sprague-Dawley
Set-up: regimen Single, gender Male, age 6 weeks
Details: in vivo, po, 200 mg/kg, route gavage, dose level High; for APTT / Bas / Eos / Fbg / Hb / Ht / Lym / MCH / MCHC / MCV / Mono / Neu / PT / Plat / RBC / Ret / WBC: tissue Blood; for KIDNEY_L / KIDNEY_R / KIDNEY_TOTAL: tissue Kidney; for LIVER: tissue Liver; for A/G / ALP / ALT / AST / BUN / CRE / Ca / Cl / DBIL / GLC / IP / K / LDH / Na / PL / RALB / TBIL / TC / TG / TP / gamma-GTP: tissue Plasma

CCc1oc2ccccc2c1C(=O)c1cc(Br)c(O)c(Br)c1 [BENZBROMARONE]
TERMINAL_BW (3 h): 215.1 g | APTT (3 h): 17.8 s | Bas (3 h): 0% | Eos (3 h): 1% | Fbg (3 h): 227 mg/dL | Hb (3 h): 13.3 g/dL | Ht (3 h): 39.8% | Lym (3 h): 76.4% | MCH (3 h): 22.2 pg | MCHC (3 h): 33.3% | MCV (3 h): 66.5 fL | Mono (3 h): 4.4% | Neu (3 h): 18.4% | PT (3 h): 12.3 s | Plat (3 h): 98.6 x10_4/uL | RBC (3 h): 600 x10_4/ul | Ret (3 h): 7.7% | WBC (3 h): 85.4 x10_2/uL | KIDNEY_L (3 h): 1 g | KIDNEY_R (3 h): 0.9 g | KIDNEY_TOTAL (3 h): 1.9 g | LIVER (3 h): 9.9 g | A/G (3 h): 1.9 | ALP (3 h): 814 IU/L | ALT (3 h): 37.2 IU/L | AST (3 h): 70 IU/L | BUN (3 h): 17.2 mg/dL | CRE (3 h): 0.8 mg/dL | Ca (3 h): 9.9 mg/dL | Cl (3 h): 103.4 meq/L | DBIL (3 h): 0.096 mg/dL | GLC (3 h): 252.6 mg/dL | IP (3 h): 10 mg/dL | K (3 h): 5.3 meq/L | LDH (3 h): 137.2 IU/L | Na (3 h): 138.4 meq/L | PL (3 h): 136.8 mg/dL | RALB (3 h): 3.6 g/dL | TBIL (3 h): 0.4 mg/dL | TC (3 h): 75.6 mg/dL | TG (3 h): 69.6 mg/dL | TP (3 h): 5.5 g/dL | gamma-GTP (3 h): 1 IU/L | TERMINAL_BW (6 h): 213.5 g | APTT (6 h): 16.3 s | Bas (6 h): 0% | Eos (6 h): 0.8% | Fbg (6 h): 239.2 mg/dL | Hb (6 h): 13.2 g/dL | Ht (6 h): 39.6% | Lym (6 h): 80.2% | MCH (6 h): 21.6 pg | MCHC (6 h): 33.3% | MCV (6 h): 64.8 fL | Mono (6 h): 5.4% | Neu (6 h): 13.6% | PT (6 h): 12.2 s | Plat (6 h): 97.5 x10_4/uL | RBC (6 h): 612 x10_4/ul | Ret (6 h): 7.9% | WBC (6 h): 66.9 x10_2/uL | KIDNEY_L (6 h): 1 g | KIDNEY_R (6 h): 1 g | KIDNEY_TOTAL (6 h): 2 g | LIVER (6 h): 9.5 g | A/G (6 h): 2 | ALP (6 h): 776.8 IU/L | ALT (6 h): 34 IU/L | AST (6 h): 59 IU/L | BUN (6 h): 14.2 mg/dL | CRE (6 h): 0.7 mg/dL | Ca (6 h): 10.5 mg/dL | Cl (6 h): 101.4 meq/L | DBIL (6 h): 0.024 mg/dL | GLC (6 h): 212.4 mg/dL | IP (6 h): 10.3 mg/dL | K (6 h): 4.8 meq/L | LDH (6 h): 137.4 IU/L | Na (6 h): 139.2 meq/L | PL (6 h): 137 mg/dL | RALB (6 h): 3.8 g/dL | TBIL (6 h): 0.4 mg/dL | TC (6 h): 78.4 mg/dL | TG (6 h): 56.6 mg/dL | TP (6 h): 5.7 g/dL | gamma-GTP (6 h): 1.4 IU/L | TERMINAL_BW (9 h): 213.1 g | APTT (9 h): 17 s | Bas (9 h): 0% | Eos (9 h): 0% | Fbg (9 h): 240 mg/dL | Hb (9 h): 13.2 g/dL | Ht (9 h): 39.4% | Lym (9 h): 79.2% | MCH (9 h): 22.2 pg | MCHC (9 h): 33.6% | MCV (9 h): 66 fL | Mono (9 h): 2.8% | Neu (9 h): 17.8% | PT (9 h): 12.2 s | Plat (9 h): 104 x10_4/uL | RBC (9 h): 596.4 x10_4/ul | Ret (9 h): 8.2% | WBC (9 h): 96.1 x10_2/uL | KIDNEY_L (9 h): 1 g | KIDNEY_R (9 h): 1 g | KIDNEY_TOTAL (9 h): 2 g | LIVER (9 h): 9.2 g | A/G (9 h): 2.1 | ALP (9 h): 868 IU/L | ALT (9 h): 34.4 IU/L | AST (9 h): 60.8 IU/L | BUN (9 h): 16.6 mg/dL | CRE (9 h): 0.7 mg/dL | Ca (9 h): 10.4 mg/dL | Cl (9 h): 103.4 meq/L | DBIL (9 h): 0.04 mg/dL | GLC (9 h): 207.8 mg/dL | IP (9 h): 10.7 mg/dL | K (9 h): 4.9 meq/L | LDH (9 h): 178.8 IU/L | Na (9 h): 138.6 meq/L | PL (9 h): 143.8 mg/dL | RALB (9 h): 3.9 g/dL | TBIL (9 h): 0.3 mg/dL | TC (9 h): 81.2 mg/dL | TG (9 h): 65.6 mg/dL | TP (9 h): 5.9 g/dL | gamma-GTP (9 h): 1.4 IU/L | TERMINAL_BW (24 h): 217.2 g | APTT (24 h): 15.8 s | Bas (24 h): 0% | Eos (24 h): 0.6% | Fbg (24 h): 219.2 mg/dL | Hb (24 h): 13.9 g/dL | Ht (24 h): 41.2% | Lym (24 h): 83.6% | MCH (24 h): 22.2 pg | MCHC (24 h): 33.6% | MCV (24 h): 65.9 fL | Mono (24 h): 4.6% | Neu (24 h): 11.4% | PT (24 h): 12.4 s | Plat (24 h): 107.4 x10_4/uL | RBC (24 h): 627.2 x10_4/ul | Ret (24 h): 7.6% | WBC (24 h): 117.5 x10_2/uL | KIDNEY_L (24 h): 1 g | KIDNEY_R (24 h): 1 g | KIDNEY_TOTAL (24 h): 2 g | LIVER (24 h): 11.3 g | A/G (24 h): 2.1 | ALP (24 h): 1012.6 IU/L | ALT (24 h): 35 IU/L | AST (24 h): 61 IU/L | BUN (24 h): 16.8 mg/dL | CRE (24 h): 0.7 mg/dL | Ca (24 h): 10.2 mg/dL | Cl (24 h): 103.6 meq/L | DBIL (24 h): 0.018 mg/dL | GLC (24 h): 182 mg/dL | IP (24 h): 7.9 mg/dL | K (24 h): 4.9 meq/L | LDH (24 h): 186.2 IU/L | Na (24 h): 139.6 meq/L | PL (24 h): 119.6 mg/dL | RALB (24 h): 3.9 g/dL | TBIL (24 h): 0.3 mg/dL | TC (24 h): 70.8 mg/dL | TG (24 h): 74.8 mg/dL | TP (24 h): 5.9 g/dL | gamma-GTP (24 h): 1.6 IU/L
